# What was measured:
# native whole human blood = assay: In vitro whole blood clotting time (WBCT), native human blood; assay type: biochemical; set-up: unit not given here
# Protocol: (§1) The antithrombin activity of the compounds of general formula (I) was determined by the usual method [Bagdy et al.: Thromb Haemostas 67, 325-330 (1992)] by measuring whole blood clotting time (WBCT), thrombin time (TT) and activated partial thromboplastin time (APTT). The in vitro activity of some compounds of the invention assayed on native human blood (non-anticoagulated clotting) (WBCT) and on citrated blood plasma (TT and APTT) is presented in Table 1.
# (§2) ^2 WBCT = whole blood clotting time, TT = thrombin time, APTT =
# (§3) activated partial thromboplastin time parameter. The figures represent
# (§4) concentrations of the compounds required to double the clotting time of
# (§5) native whole human blood or of citrated blood plasma.
# citrated blood plasma [1] = assay: In vitro thrombin time (TT), citrated blood plasma; assay type: biochemical, human; set-up: unit not given here
# Protocol: as §1, §2, §3, §4, §5
# citrated blood plasma [2] = assay: In vitro activated partial thromboplastin time (APTT), citrated blood plasma; assay type: biochemical, human; set-up: unit not given here
# Protocol: as §1, §2, §3, §4, §5
# [3] = system: fibrinolysis induced by tissue plasminogen activator; assay: Fibrinolysis induced by tissue plasminogen activator, thromboelastogram; assay type: biochemical
# Description: The compounds of the general formula (I) inhibit clot formation without interfering with the natural lysis of blood clots in the body, e.g. fibrinolysis. […] Thromboelastography. In: Bang N. U., F. K. Beller, E. Deutsch, E. F. Mamman eds. Thrombosis and Bleeding Disorders. Theory and Methods. Academic Press, London, 1971: 70-76].
# whole blood clotting = assay: In vivo antithrombin effect in rabbits: whole blood clotting time (WBCT)
# Protocol: (§6) The in vivo antithrombin effect of the compounds of general formula (I) was treated in rabbits by a known method [Bagdy et al: Thromb Haemost 67, 357-365 (1992)]. The compounds were applied in a dose of 0.5-3.0 mg/kg s.c. and 5-15 mg/kg p.o. The effect was already detectable 15-30 minutes after drug administration, peak effect was attained after 90-120 minutes but the therapeutic effect was dose dependently maintained during 3 to longer than 5 hours.
# (§7) The in vivo antithrombin effect of 3-cyclohexyl-D-lactyl-L-prolyl-L-arginine aldehyde hemisulfate (Example 7.) is presented in detail in Tables 2 and 3. The compound was administered in doses of 10 and 15 mg/kg, resp., p.o. and the blood samples taken from the ear-vein of the animals were assayed in every 30 minutes. The whole blood clotting time (WBCT) and the inhibition of whole blood platelet aggregation induced by thrombin (IWBA) were determined. Furthermore the citrated plasma thrombin time (TT) of the blood sample and the activated partial thromboplastin time (APTT) were measured, too. The WBCT and APTT values are presented in Table 2 and the TT and IWBA values in Table 3.
# [4] = system: whole blood platelet aggregation induced by thrombin; assay: In vivo antithrombin effect in rabbits: inhibition of whole blood platelet aggregation induced by thrombin (IWBA)
# Protocol: as §6, §7
# citrated plasma [5] = assay: In vivo antithrombin effect in rabbits: activated partial thromboplastin time (APTT)
# Protocol: as §6, §7
# citrated plasma [6] = assay: In vivo antithrombin effect in rabbits: citrated plasma thrombin time (TT)
# Protocol: as §6, §7
compound,measurement,setting,value
"N=C(N)NCCC[C@@H](C=O)NC(=O)[C@@H]1CCCN1C(=O)[C@@H]1OCCc2ccccc21.N=C(N)NCCC[C@@H](C=O)NC(=O)[C@@H]1CCCN1C(=O)[C@@H]1OCCc2ccccc21.O=S(=O)(O)O [Example 1, D-Isochroman-1-carbonyl-L-prolyl-L-arginine aldehyde hemisulfate]",WBCT: concentration required to double the clotting time,native whole human blood,1.55
same,TT: concentration required to double the clotting time,citrated blood plasma [1],0.132
same,APTT: concentration required to double the clotting time,citrated blood plasma [2],0.60
"N=C(N)NCCC[C@@H](C=O)NC(=O)[C@H]1CCCN1C(=O)C(O)c1ccccc1.N=C(N)NCCC[C@@H](C=O)NC(=O)[C@H]1CCCN1C(=O)C(O)c1ccccc1.O=S(=O)(O)O (stereo partly drawn) [Example 6, D-2-Phenyl-2-hydroxyacetyl-L-prolyl-L-arginine aldehyde hemisulfate]",WBCT: concentration required to double the clotting time,native whole human blood,0.45
same,inhibitory effect on fibrinolysis induced by tissue plasminogen activator,[3],only negligible inhibitory effect
same,TT: concentration required to double the clotting time,citrated blood plasma [1],0.040
same,APTT: concentration required to double the clotting time,citrated blood plasma [2],0.15
"N=C(N)NCCC[C@@H](C=O)NC(=O)[C@@H]1CCCN1C(=O)[C@H](O)CC1CCCCC1.N=C(N)NCCC[C@@H](C=O)NC(=O)[C@@H]1CCCN1C(=O)[C@H](O)CC1CCCCC1.O=S(=O)(O)O [Example 7, 3-Cyclohexyl-D-lactyl-L-prolyl-L-arginine aldehyde hemisulfate]",WBCT: concentration required to double the clotting time,native whole human blood,0.32
same,WBCT,"whole blood clotting; 10 mg/kg p.o., time 0 min",13.2 ± 1.1 min
same,WBCT,"whole blood clotting; 10 mg/kg p.o., time 30 min",17.7 ± 1.6 min
same,WBCT,"whole blood clotting; 10 mg/kg p.o., time 60 min",23.6 ± 1.9 min
same,WBCT,"whole blood clotting; 10 mg/kg p.o., time 90 min",21.2 ± 2.9 min
same,WBCT,"whole blood clotting; 10 mg/kg p.o., time 120 min",18.8 ± 1.0 min
same,WBCT,"whole blood clotting; 10 mg/kg p.o., time 150 min",19.2 ± 1.1 min
same,WBCT,"whole blood clotting; 10 mg/kg p.o., time 180 min",18.4 ± 1.5 min
same,WBCT,"whole blood clotting; 10 mg/kg p.o., time 210 min",17.2 ± 2.3 min
same,WBCT,"whole blood clotting; 10 mg/kg p.o., time 240 min",15.8 ± 1.7 min
same,WBCT,"whole blood clotting; 10 mg/kg p.o., time 270 min",16.2 ± 2.1 min
same,WBCT,"whole blood clotting; 10 mg/kg p.o., time 300 min",13.5 ± 0.9 min
same,WBCT,"whole blood clotting; 15 mg/kg p.o., time 0 min",14.6 ± 0.4 min
same,WBCT,"whole blood clotting; 15 mg/kg p.o., time 30 min",24.2 ± 4.7 min
same,WBCT,"whole blood clotting; 15 mg/kg p.o., time 60 min",29.4 ± 4.5 min
same,WBCT,"whole blood clotting; 15 mg/kg p.o., time 90 min",33.0 ± 5.9 min
same,WBCT,"whole blood clotting; 15 mg/kg p.o., time 120 min",34.4 ± 4.4 min
same,WBCT,"whole blood clotting; 15 mg/kg p.o., time 150 min",27.2 ± 3.6 min
same,WBCT,"whole blood clotting; 15 mg/kg p.o., time 180 min",29.5 ± 2.7 min
same,WBCT,"whole blood clotting; 15 mg/kg p.o., time 210 min",34.0 ± 5.9 min
same,WBCT,"whole blood clotting; 15 mg/kg p.o., time 240 min",33.7 ± 6.5 min
same,WBCT,"whole blood clotting; 15 mg/kg p.o., time 270 min",26.0 ± 1.2 min
same,WBCT,"whole blood clotting; 15 mg/kg p.o., time 300 min",23.6 ± 3.3 min
same,inhibitory effect on fibrinolysis induced by tissue plasminogen activator,[3],only negligible inhibitory effect
same,TT: concentration required to double the clotting time,citrated blood plasma [1],0.072
same,IWBA,"[4]; 10 mg/kg p.o., time 30 min",89.4 ± 7.6%
same,IWBA,"[4]; 10 mg/kg p.o., time 60 min",95.8 ± 6.9%
same,IWBA,"[4]; 10 mg/kg p.o., time 90 min",81.6 ± 8.2%
same,IWBA,"[4]; 10 mg/kg p.o., time 120 min",94.0 ± 3.2%
same,IWBA,"[4]; 10 mg/kg p.o., time 150 min",71.4 ± 13.8%
same,IWBA,"[4]; 10 mg/kg p.o., time 180 min",72.4 ± 19.2%
same,IWBA,"[4]; 10 mg/kg p.o., time 210 min",54.4 ± 21.0%
same,IWBA,"[4]; 10 mg/kg p.o., time 240 min",50.6 ± 17.7%
same,IWBA,"[4]; 10 mg/kg p.o., time 270 min",35.2 ± 17.3%
same,IWBA,"[4]; 10 mg/kg p.o., time 300 min",48.2 ± 16.9%
same,IWBA,"[4]; 15 mg/kg p.o., time 30 min",81.4%
same,IWBA,"[4]; 15 mg/kg p.o., time 60 min",97.4%
same,IWBA,"[4]; 15 mg/kg p.o., time 90 min",100.0 ± 0%
same,IWBA,"[4]; 15 mg/kg p.o., time 120 min",100.0 ± 0%
same,IWBA,"[4]; 15 mg/kg p.o., time 150 min",100.0 ± 0%
same,IWBA,"[4]; 15 mg/kg p.o., time 180 min",100.0 ± 0%
same,IWBA,"[4]; 15 mg/kg p.o., time 210 min",93.7%
same,IWBA,"[4]; 15 mg/kg p.o., time 240 min",82.6%
same,IWBA,"[4]; 15 mg/kg p.o., time 270 min",81.0%
same,IWBA,"[4]; 15 mg/kg p.o., time 300 min",69.6%
same,APTT: concentration required to double the clotting time,citrated blood plasma [2],0.20
same,APTT,"citrated plasma [5]; 10 mg/kg p.o., time 0 min",27.7 ± 1.2 s
same,APTT,"citrated plasma [5]; 10 mg/kg p.o., time 30 min",58.9 ± 9.0 s
same,APTT,"citrated plasma [5]; 10 mg/kg p.o., time 60 min",77.6 ± 14.6 s
same,APTT,"citrated plasma [5]; 10 mg/kg p.o., time 90 min",65.1 ± 8.4 s
same,APTT,"citrated plasma [5]; 10 mg/kg p.o., time 120 min",55.1 ± 11.4 s
same,APTT,"citrated plasma [5]; 10 mg/kg p.o., time 150 min",52.1 ± 6.6 s
same,APTT,"citrated plasma [5]; 10 mg/kg p.o., time 180 min",53.8 ± 8.5 s
same,APTT,"citrated plasma [5]; 10 mg/kg p.o., time 210 min",48.6 ± 3.8 s
same,APTT,"citrated plasma [5]; 10 mg/kg p.o., time 240 min",47.7 ± 7.4 s
same,APTT,"citrated plasma [5]; 10 mg/kg p.o., time 270 min",44.4 ± 3.7 s
same,APTT,"citrated plasma [5]; 10 mg/kg p.o., time 300 min",43.7 ± 5.0 s
same,APTT,"citrated plasma [5]; 15 mg/kg p.o., time 0 min",32.6 ± 4.6 s
same,APTT,"citrated plasma [5]; 15 mg/kg p.o., time 30 min",115.0 ± 36.6 s
same,APTT,"citrated plasma [5]; 15 mg/kg p.o., time 60 min",150.4 ± 30.9 s
same,APTT,"citrated plasma [5]; 15 mg/kg p.o., time 90 min",170.3 ± 18.5 s
same,APTT,"citrated plasma [5]; 15 mg/kg p.o., time 120 min",145.6 ± 22.7 s
same,APTT,"citrated plasma [5]; 15 mg/kg p.o., time 150 min",149.2 ± 22.0 s
same,APTT,"citrated plasma [5]; 15 mg/kg p.o., time 180 min",169.0 ± 23.0 s
same,APTT,"citrated plasma [5]; 15 mg/kg p.o., time 210 min",137.7 ± 25.8 s
same,APTT,"citrated plasma [5]; 15 mg/kg p.o., time 240 min",127.4 ± 25.7 s
same,APTT,"citrated plasma [5]; 15 mg/kg p.o., time 270 min",133.4 ± 24.7 s
same,APTT,"citrated plasma [5]; 15 mg/kg p.o., time 300 min",92.8 ± 18.4 s
same,TT,"citrated plasma [6]; 10 mg/kg p.o., time 0 min",18.4 ± 2.1 s
same,TT,"citrated plasma [6]; 10 mg/kg p.o., time 30 min",317.1 ± 123.0 s
same,TT,"citrated plasma [6]; 10 mg/kg p.o., time 60 min",416.0 ± 107.2 s
same,TT,"citrated plasma [6]; 10 mg/kg p.o., time 90 min",444.7 ± 108.6 s
same,TT,"citrated plasma [6]; 10 mg/kg p.o., time 120 min",264.6 ± 101.3 s
same,TT,"citrated plasma [6]; 10 mg/kg p.o., time 150 min",201.1 ± 109.9 s
same,TT,"citrated plasma [6]; 10 mg/kg p.o., time 180 min",182.7 ± 113.6 s
same,TT,"citrated plasma [6]; 10 mg/kg p.o., time 210 min",123.0 ± 65.3 s
same,TT,"citrated plasma [6]; 10 mg/kg p.o., time 240 min",141.5 ± 81.3 s
same,TT,"citrated plasma [6]; 10 mg/kg p.o., time 270 min",65.4 ± 25.7 s
same,TT,"citrated plasma [6]; 10 mg/kg p.o., time 300 min",41.8 ± 11.4 s
same,TT,"citrated plasma [6]; 15 mg/kg p.o., time 0 min",18.9 ± 2.1 s
same,TT,"citrated plasma [6]; 15 mg/kg p.o., time 30 min",371.2 ± 142.3 s
same,TT,"citrated plasma [6]; 15 mg/kg p.o., time 60 min",528.3 ± 72.9 s
same,TT,"citrated plasma [6]; 15 mg/kg p.o., time 90 min",578.8 ± 21.5 s
same,TT,"citrated plasma [6]; 15 mg/kg p.o., time 120 min",> 600.0 ± 0 s
same,TT,"citrated plasma [6]; 15 mg/kg p.o., time 150 min",549.6 ± 34.0 s
same,TT,"citrated plasma [6]; 15 mg/kg p.o., time 180 min",380.7 ± 116.0 s
same,TT,"citrated plasma [6]; 15 mg/kg p.o., time 210 min",342.1 ± 121.2 s
same,TT,"citrated plasma [6]; 15 mg/kg p.o., time 240 min",340.9 ± 137.0 s
same,TT,"citrated plasma [6]; 15 mg/kg p.o., time 270 min",376.4 ± 153.0 s
same,TT,"citrated plasma [6]; 15 mg/kg p.o., time 300 min",261.0 ± 140.8 s

# Source: US5760235A, “Anticoagulant peptide derivatives and pharmaceutical compositions containing the same as well as a process for preparation thereof” (Gyogyszerkutato Intezet Kft., priority 1992, dated 1998)
